Results taken from patent US20110044938A1 (NYCOMED GMBH, priority 2006, published 2011).

Key:
[1] = test system: subclones of RKO colon adenocarcinoma cells (RKOp27 or RKOp21) arrested by Ponasterone A; assay: Alamar Blue cell viability assay, cell cycle specific mode of action: cells arrested by ectopic p27Kip1 induced by Ponasterone A versus proliferating cells; type: cell-based; conditions: Homo sapiens, RKO p27 induced (arrested) cells, 10 μM Ponasterone A, 72 hours, value = class bound given in Table A, read-out: −logIC50 RKO p27 induced (arrested) (converted)
Method in brief: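 Viability of proliferating versus Ponasterone A (10 μM)-arrested RKOp27/RKOp21 cells after 72 h compound exposure at 37° C, in quadruplicate. Read-out is Alamar Blue fluorescence (544/590 nm) normalised to untreated cells = 100%; values as −log IC50.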

[2] = test system: RKO (RKOp27) human colon adenocarcinoma cells; assay: Alamar Blue cell viability assay, anti-proliferative/cytotoxic activity on proliferating RKO subclones; type: cell-based; conditions: RKOp27, 72 h, RKO p27 uninduced (proliferating) cells, value = class bound given in Table A, read-out: −logIC50 RKO p27 uninduced (proliferating) (converted)
Method in brief: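 Alamar Blue fluorescence (ex 544, em 590 nm) after 72 h compound exposure at 37 °C, 5% CO2, normalised to untreated controls set at 100%. Cells were seeded at 5000 per well and dosed 24 h later with serial semi-logarithmic dilutions in 10% FCS DMEM, four replicates each. −log IC50 [mol/l] was derived from concentration-effect curves.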

SMILES	IC50 [1] [nM]	IC50 [2] [nM]
N#Cc1c(NC(=O)/C=C/c2cccnc2)sc2c1CC[C@@H](COC(=O)N1CC(O)C1)C2 [Example 73b, 3-Hydroxy-azetidine-l - carboxylic acid (R)-3-cyano-2-((E)-3-pyridin-3-yl-allanoylamino)-4,5,6,7-tetrahydro-benzo[b]thiophen-6-ylmethyl ester]	≥ 100000	501 to 2000
CN(C)C(=O)OCC1CCc2c(sc(NC(=O)/C=C/c3cccnc3)c2C#N)C1 (stereo not shown) [Example 74, Dimethyl-carbamic acid 3-cyano-2-((E)-3-pyridin-3-yl-allanoylamino)-4,5,6,7-tetrahydro-benzo[b]thiophen-6-ylmethyl ester]	≥ 100000	≤ 501
CN(C)C(=O)OC[C@H]1CCc2c(sc(NC(=O)/C=C/c3cccnc3)c2C#N)C1 [Example 74a, Dimethyl-carbamic acid (S)-3-cyano-2-((E)-3-pyridin-3-yl-allanoylamino)-4,5,6,7-tetrahydro-benzo[b]thiophen-6-ylmethyl ester]	≥ 100000	≤ 501
CN(C)C(=O)OC[C@@H]1CCc2c(sc(NC(=O)/C=C/c3cccnc3)c2C#N)C1 [Example 74b, Dimethyl-carbamic acid (R)-3-cyano-2-((E)-3-pyridin-3-yl-allanoylamino)-4,5,6,7-tetrahydro-benzo[b]thiophen-6-ylmethyl ester]	≥ 100000	≤ 501
N#Cc1c(NC(=O)/C=C/c2cccnc2)sc2c1CCC(COC(=O)N1CCC(O)C1)C2 (stereo not shown) [Example 75, 3-Hydroxy-pyrrolidine-1-carboxylic acid 3-cyano-2-((E)-3-pyridin-3-yl-allanoylamino)-4,5,6,7-tetrahydro-benzo[b]thiophen-6-ylmethyl ester]	≥ 100000	≤ 501
N#Cc1c(NC(=O)/C=C/c2cccnc2)sc2c1CCC(OC(=O)N1CCC(O)C1)C2 (stereo not shown) [Example 76, 3-Hydroxy-pyrrolidine-1-carboxylic acid 3-cyano-2-((E)-3-pyridin-3-yl-allanoylamino)-4,5,6,7-tetrahydro-benzo[b]thiophen-6-yl ester]	≥ 100000	≤ 501
N#Cc1c(NC(=O)/C=C/c2cccnc2)sc2c1CCC(OC(=O)N1CC(O)C1)C2 (stereo not shown) [Example 77, 3-Hydroxy-azetidine-1-carboxylic acid 3-cyano-2-((E)-3-pyridin-3-yl-allanoylamino)-4,5,6,7-tetrahydro-benzo[b]thiophen-6-yl ester]	≥ 100000	≤ 501
CN(C)C(=O)OC1CCc2c(sc(NC(=O)/C=C/c3cccnc3)c2C#N)C1 (stereo not shown) [Example 78, Dimethyl-carbamic acid 3-cyano-2-((E)-3-pyridin-3-yl-allanoylamino)-4,5,6,7-tetrahydro-benzo[b]thiophen-6-yl ester]	≥ 100000	≤ 501
N#Cc1c(NC(=O)/C=C/c2cccnc2)sc2c1CCC(COC(=O)N1CCC1)C2 (stereo not shown) [Example 79, Azetidine-1-carboxylic acid 3-cyano-2-((E)-3-pyridin-3-yl-allanoylamino)-4,5,6,7-tetrahydro-benzo[b]thiophen-6-ylmethyl ester]	≥ 100000	501 to 2000
N#Cc1c(NC(=O)/C=C/c2cccnc2)sc2c1CCC(OC(=O)N1CCC1)C2 (stereo not shown) [Example 80, Azetidine-1-carboxylic acid 3-cyano-2-((E)-3-pyridin-3-yl-allanoylamino)-4,5,6,7-tetrahydro-benzo[b]thiophen-6-yl ester]	≥ 100000	≤ 501
COC(=O)[C@@H]1CCCN1C(=O)OC1CCc2c(sc(NC(=O)/C=C/c3cccnc3)c2C#N)C1 (stereo partly drawn) [Example 81, 2-(S)-Pyrrolidine-1,2-dicarboxylic acid 1-[3-cyano-2-((E)-3-pyridin-3-yl-allanoylamino)-4,5,6,7-tetrahydro-benzo[b]thiophen-6-yl] ester 2-methyl ester]	≥ 100000	501 to 2000
CCN(CC)C(=O)OCC1CCc2c(sc(NC(=O)/C=C/c3cccnc3)c2C#N)C1 (stereo not shown) [Example 82, Diethyl-carbamic acid 3-cyano-2-((E)-3-pyridin-3-yl-allanoylamino)-4,5,6,7-tetrahydro-benzo[b]thiophen-6-ylmethyl ester]	≥ 100000	≤ 501
N#Cc1c(NC(=O)/C=C/c2cccnc2)sc2c1CCC(COC(=O)N1CCCCC1)C2 (stereo not shown) [Example 83, Piperidine-1-carboxylic acid 3-cyano-2-((E)-3-pyridin-3-yl-allanoylamino)-4,5,6,7-tetrahydro-benzo[b]thiophen-6-ylmethyl ester]	≥ 100000	≤ 501
N#Cc1c(NC(=O)/C=C/c2cccnc2)sc2c1CCC(COC(=O)N1CCOCC1)C2 (stereo not shown) [Example 84, Morpholine-4-carboxylic acid-3-cyano-2-((E)-3-pyridin-3-yl-allanoylamino)-4,5,6,7-tetrahydro-benzo[b]thiophen-6-ylmethyl ester]	≥ 100000	≤ 501
CCN(C)C(=O)OCC1CCc2c(sc(NC(=O)/C=C/c3cccnc3)c2C#N)C1 (stereo not shown) [Example 85, Ethyl-methyl-carbamic acid 3-cyano-2-((E)-3-pyridin-3-yl-allanoylamino)-4,5,6,7-tetrahydro-benzo[b]thiophen-6-ylmethyl ester]	≥ 100000	≤ 501
N#Cc1c(NC(=O)/C=C/c2cccnc2)sc2c1CCC(COC(=O)N1CC=CC1)C2 (stereo not shown) [Example 86, 2,5-Dihydro-pyrrole-1-carboxylic acid 3-cyano-2-((E)-3-pyridin-3-yl-allanoylamino)-4,5,6,7-tetrahydro-benzo[b]thiophen-6-ylmethyl ester]	≥ 100000	≤ 501
N#Cc1c(NC(=O)/C=C/c2cccnc2)sc2c1CCC(COC(=O)N1CCCC(O)C1)C2 (stereo not shown) [Example 87, 3-Hydroxy-piperidine-1-carboxylic acid 3-cyano-2-((E)-3-pyridin-3-yl-allanoylamino)-4,5,6,7-tetrahydro-benzo[b]thiophen-6-ylmethyl ester]	≥ 100000	≤ 501
N#Cc1c(NC(=O)/C=C/c2cccnc2)sc2c1CC[C@@H](COC(=O)N1CCC[C@@H](O)C1)C2 [Example 87a, (R)-3-Hydroxy-piperidine-1-carboxylic acid (R)-3-cyano-2-((E)-3-pyridin-3-yl-allanoylamino)-4,5,6,7-tetrahydro-benzo[b]thiophen-6-ylmethylester]	≥ 100000	≤ 501
N#Cc1c(NC(=O)/C=C/c2cccnc2)sc2c1CC[C@H](COC(=O)N1CCC[C@@H](O)C1)C2 [Example 87b, (R)-3-Hydroxy-piperidine-1-carboxylic acid (S)-3-cyano-2-((E)-3-pyridin-3-yl-allanoylamino)-4,5,6,7-tetrahydro-benzo[b]thiophen-6-ylmethyl ester]	≥ 100000	≤ 501
N#Cc1c(NC(=O)/C=C/c2cccnc2)sc2c1CC[C@H](COC(=O)N1CCC[C@H](O)C1)C2 [Example 87c, (S)-3-Hydroxy-piperidine-1-carboxylic acid (S)-3-cyano-2-((E)-3-pyridin-3-yl-allanoylamino)-4,5,6,7-tetrahydro-benzo[b]thiophen-6-ylmethyl ester]	≥ 100000	≤ 501
N#Cc1c(NC(=O)/C=C/c2cccnc2)sc2c1CC[C@@H](COC(=O)N1CCC[C@H](O)C1)C2 [Example 87d, (S)-3-Hydroxy-piperidine-1-carboxylic acid (R)-3-cyano-2-((E)-3-pyridin-3-yl-allanoylamino)-4,5,6,7-tetrahydro-benzo[b]thiophen-6-ylmethyl ester]	≥ 100000	≤ 501
CC1CCCN1C(=O)OCC1CCc2c(sc(NC(=O)/C=C/c3cccnc3)c2C#N)C1 (stereo not shown) [Example 88, 2-Methylpyrrolidine-1-carboxylic acid 3-cyano-2-((E)-3-pyridin-3-yl-allanoylamino)-4,5,6,7-tetrahydro-benzo[b]thiophen-6-ylmethyl ester]	≥ 100000	≤ 501
COCC1CCCN1C(=O)OCC1CCc2c(sc(NC(=O)/C=C/c3cccnc3)c2C#N)C1 (stereo not shown) [Example 89, 2-(Methoxymethyl) pyrrolidine-1-carboxylic acid 3-cyano-2-((E)-3-pyridin-3-yl-allanoylamino)-4,5,6,7-tetrahydro-benzo[b]thiophen-6-ylmethyl ester]	≥ 100000	≤ 501
COC[C@@H]1CCCN1C(=O)OCC1CCc2c(sc(NC(=O)/C=C/c3cccnc3)c2C#N)C1 (stereo partly drawn) [Example 90, 2-(S)-(Methoxymethyl) pyrrolidine-1-carboxylic acid 3-cyano-2-((E)-3-pyridin-3-yl-allanoylamino)-4,5,6,7-tetrahydro-benzo[b]thiophen-6-ylmethyl ester]	≥ 100000	≤ 501
CCN(C)C(=O)OC1CCc2c(sc(NC(=O)/C=C/c3cccnc3)c2C#N)C1 (stereo not shown) [Example 91, Ethyl-methyl-carbamic acid 3-cyano-2-((E)-3-pyridin-3-yl-allanoylamino)-4,5,6,7-tetrahydro-benzo[b]thiophen-6-yl ester]	≥ 100000	≤ 501
N#Cc1c(NC(=O)/C=C/c2cccnc2)sc2c1CCC(OC(=O)N1CC=CC1)C2 (stereo not shown) [Example 92, 2,5-Dihydro-pyrrole-1-carboxylic acid 3-cyano-2-((E)-3-pyridin-3-yl-allanoylamino)-4,5,6,7-tetrahydro-benzo[b]thiophen-6-yl ester]	≥ 100000	≤ 501
